# In the OligoGym collection:
# HELM strings list units from the 5' end as sugar, base in round brackets, then linkage (d deoxyribose, r ribose, m 2'-O-methyl, p phosphodiester). Strings are as the collection lists them, not checked against the first reports. ss, as = sense and antisense strand; [lna] = locked nucleic acid (LNA); [una] = unlocked nucleic acid; [s4r] = 4'-thioribose; [fl2r] = 2'-fluoro
# Conditions: siRNA
# Further: test system not given here.
row,Substance,target mRNA knockdown
1,RNA1{[fl2r](A)p.r(G)p.[fl2r](G)p.r(A)p.[fl2r](G)p.r(A)p.[fl2r](C)p.r(C)p.[fl2r](G)p.r(U)p.[fl2r](G)p.r(A)p.[fl2r](C)p.r(A)p.[fl2r](U)p.r(U)p.[fl2r](U)p.r(C)p.[fl2r](G)p.r(T)p.r(T)}|RNA2{r(C)p.[fl2r](G)p.r(A)p.r(A)p.r(A)p.r(U)p.[fl2r](G)p.r(U)p.r(C)p.r(A)p.r(C)p.[fl2r](G)p.[fl2r](G)p.r(U)p.r(C)p.r(U)p.r(C)p.r(C)p.r(U)p.r(T)p.r(T)}$$$RNA1{StrandType:ss}|RNA2{StrandType:as}$,33%
2,RNA1{r(C)p.r(U)p.r(U)p.r(A)p.r(C)p.r(G)p.r(C)p.r(U)p.r(G)p.r(A)p.r(G)p.r(U)p.r(A)p.r(C)p.r(U)p.r(U)p.r(C)p.r(G)p.r(A)p.r(T)p.r(T)}|RNA2{r(T)p.r(C)p.r(G)p.r(A)p.[lna](A)p.r(G)p.r(U)p.r(A)p.r(C)p.r(U)p.r(C)p.r(A)p.r(G)p.r(C)p.r(G)p.r(U)p.r(A)p.r(A)p.r(G)p.[lna](T)p.[lna](T)}$$$RNA1{StrandType:ss}|RNA2{StrandType:as}$,88%
3,RNA1{r(G)p.r(A)p.r(G)p.r(G)p.r(A)p.m(U)p.r(G)p.r(G)p.r(A)p.r(U)p.r(U)p.r(C)p.r(G)p.m(A)p.r(C)p.r(U)p.m(U)p.r(A)p.r(G)p.r(T)p.r(T)}|RNA2{r(C)p.m(U)p.r(A)p.r(A)p.m(G)p.r(U)p.r(C)p.r(G)p.r(A)p.r(A)p.r(U)p.r(C)p.m(C)p.r(A)p.r(U)p.r(C)p.r(C)p.r(U)p.r(C)p.r(T)p.r(T)}$$$RNA1{StrandType:ss}|RNA2{StrandType:as}$,91%
4,RNA1{r(A)p.r(A)p.m(U)p.r(A)p.r(A)p.r(G)p.m(C)p.r(A)p.r(G)p.r(C)p.r(U)p.r(C)p.r(G)p.r(C)p.r(G)p.r(C)p.r(U)p.r(C)p.r(C)p.r(T)p.r(T)}|RNA2{r(G)p.r(G)p.r(A)p.r(G)p.r(C)p.r(G)p.r(C)p.r(G)p.r(A)p.r(G)p.r(C)p.r(U)p.r(G)p.r(C)p.r(U)p.m(U)p.r(A)p.r(U)p.r(U)p.r(T)p.r(T)}$$$RNA1{StrandType:ss}|RNA2{StrandType:as}$,54%
5,RNA1{r(C)p.r(G)p.r(U)p.r(A)p.r(C)p.r(G)p.r(C)p.r(G)p.r(G)p.r(A)p.r(A)p.r(U)p.r(A)p.r(C)p.r(U)p.r(U)p.r(C)p.r(G)p.r(A)p.r(T)p.r(T)}|RNA2{[s4r](U)p.[s4r](C)p.[s4r](G)p.[s4r](A)p.[s4r](A)p.[s4r](G)p.[s4r](U)p.[s4r](A)p.[s4r](U)p.[s4r](U)p.[s4r](C)p.[s4r](C)p.[s4r](G)p.[s4r](C)p.[s4r](G)p.[s4r](U)p.[s4r](A)p.[s4r](C)p.[s4r](G)p.r(T)p.r(T)}$$$RNA1{StrandType:ss}|RNA2{StrandType:as}$,16.6%
6,RNA1{[fl2r](A)p.r(U)p.[fl2r](C)p.r(G)p.[fl2r](C)p.r(U)p.[fl2r](G)p.r(C)p.[fl2r](U)p.r(C)p.[fl2r](C)p.r(U)p.[fl2r](C)p.r(C)p.[fl2r](U)p.r(C)p.[fl2r](C)p.r(U)p.[fl2r](C)p.r(T)p.r(T)}|RNA2{r(G)p.r(A)p.r(G)p.r(G)p.r(A)p.r(G)p.r(G)p.r(A)p.r(G)p.r(G)p.r(A)p.r(G)p.r(C)p.r(A)p.r(G)p.r(C)p.r(G)p.r(A)p.[fl2r](U)p.r(T)p.r(T)}$$$RNA1{StrandType:ss}|RNA2{StrandType:as}$,39%
7,RNA1{r(G)p.r(C)p.r(A)p.r(G)p.r(C)p.r(A)p.r(C)p.r(G)p.r(A)p.r(C)p.r(U)p.r(U)p.r(C)p.r(U)p.r(U)p.r(C)p.r(A)p.r(A)p.r(G)p.r(U)p.r(U)}|RNA2{r(C)p.m(U)p.r(U)p.r(G)p.r(A)p.r(A)p.r(G)p.r(A)p.r(A)p.r(G)p.r(U)p.r(C)p.r(G)p.r(U)p.r(G)p.r(C)p.r(U)p.r(G)p.r(C)p.r(U)p.r(U)}$$$RNA1{StrandType:ss}|RNA2{StrandType:as}$,71.7%
8,RNA1{r(A)p.r(C)p.r(C)p.r(G)p.r(A)p.r(C)p.r(G)p.r(A)p.r(U)p.r(U)p.r(C)p.r(U)p.r(U)p.r(C)p.m(U)p.r(A)p.r(C)p.r(U)p.r(C)p.r(T)p.r(T)}|RNA2{r(G)p.r(A)p.r(G)p.m(U)p.r(A)p.r(G)p.r(A)p.r(A)p.r(G)p.m(A)p.m(A)p.r(U)p.r(C)p.r(G)p.r(U)p.r(C)p.r(G)p.r(G)p.r(U)p.r(T)p.r(T)}$$$RNA1{StrandType:ss}|RNA2{StrandType:as}$,67%
9,RNA1{r(A)p.r(G)p.r(C)p.r(G)p.r(A)p.r(U)p.r(C)p.r(C)p.r(C)p.m(G)p.r(A)p.r(A)p.m(C)p.r(A)p.r(A)p.r(G)p.m(U)p.r(A)p.r(U)p.r(T)p.r(T)}|RNA2{r(A)p.m(U)p.r(A)p.r(C)p.r(U)p.m(U)p.r(G)p.r(U)p.r(U)p.r(C)p.r(G)p.r(G)p.r(G)p.r(A)p.r(U)p.r(C)p.r(G)p.r(C)p.r(U)p.r(T)p.r(T)}$$$RNA1{StrandType:ss}|RNA2{StrandType:as}$,84%
10,RNA1{[fl2r](A)p.r(A)p.[fl2r](G)p.r(G)p.[fl2r](C)p.r(C)p.[fl2r](A)p.r(A)p.[fl2r](C)p.r(C)p.[fl2r](G)p.r(A)p.[fl2r](U)p.r(A)p.[fl2r](C)p.r(U)p.[fl2r](U)p.r(C)p.[fl2r](U)p.r(T)p.r(T)}|RNA2{r(A)p.r(G)p.r(A)p.r(A)p.r(G)p.[fl2r](U)p.r(A)p.[fl2r](U)p.r(C)p.r(G)p.r(G)p.[fl2r](U)p.[fl2r](U)p.r(G)p.r(G)p.r(C)p.r(C)p.[fl2r](U)p.[fl2r](U)p.r(T)p.r(T)}$$$RNA1{StrandType:ss}|RNA2{StrandType:as}$,46%
11,RNA1{r(C)p.r(U)p.r(U)p.r(A)p.r(C)p.r(G)p.r(C)p.r(U)p.r(G)p.r(A)p.r(G)p.r(U)p.r(A)p.r(C)p.r(U)p.r(U)p.r(C)p.r(G)p.r(A)p.r(T)p.r(T)}|RNA2{r(U)p.r(C)p.r(G)p.r(A)p.r(A)p.r(G)p.r(U)p.r(A)p.r(C)p.r(U)p.[lna](C)p.r(A)p.r(G)p.r(C)p.r(G)p.r(U)p.r(A)p.r(A)p.r(G)p.r(T)p.r(T)}$$$RNA1{StrandType:ss}|RNA2{StrandType:as}$,50%
12,RNA1{r(G)p.r(U)p.r(A)p.r(U)p.r(G)p.r(A)p.r(C)p.r(C)p.r(G)p.r(A)p.r(C)p.r(U)p.r(A)p.r(C)p.r(G)p.r(C)p.r(G)p.r(U)p.r(A)p.r(T)p.r(T)}|RNA2{r(U)p.r(U)p.r(C)p.r(A)p.[una](G)p.r(U)p.r(G)p.r(U)p.r(G)p.r(A)p.r(U)p.r(G)p.r(A)p.r(C)p.r(A)p.r(C)p.r(U)p.r(U)p.r(G)p.r(T)p.r(T)}$$$RNA1{StrandType:ss}|RNA2{StrandType:as}$,92%
13,RNA1{[fl2r](G)p.r(G)p.[fl2r](A)p.r(A)p.[fl2r](G)p.r(A)p.[fl2r](A)p.r(G)p.[fl2r](A)p.r(U)p.[fl2r](A)p.r(G)p.[fl2r](A)p.r(G)p.[fl2r](C)p.r(A)p.[fl2r](U)p.r(C)p.[fl2r](C)p.r(T)p.r(T)}|RNA2{r(G)p.r(G)p.r(A)p.[fl2r](U)p.r(G)p.r(C)p.r(U)p.r(C)p.[fl2r](U)p.r(A)p.r(U)p.r(C)p.r(U)p.r(U)p.r(C)p.r(U)p.r(U)p.r(C)p.r(C)p.r(T)p.r(T)}$$$RNA1{StrandType:ss}|RNA2{StrandType:as}$,13%
14,RNA1{r(U)p.r(C)p.m(U)p.r(A)p.r(C)p.r(A)p.r(C)p.r(C)p.r(G)p.r(C)p.r(G)p.r(C)p.r(C)p.r(C)p.r(C)p.r(C)p.r(C)p.r(U)p.r(C)p.r(T)p.r(T)}|RNA2{r(G)p.r(A)p.r(G)p.r(G)p.r(G)p.r(G)p.r(G)p.r(G)p.r(C)p.r(G)p.r(C)p.r(G)p.r(G)p.r(U)p.r(G)p.m(U)p.r(A)p.r(G)p.r(A)p.r(T)p.r(T)}$$$RNA1{StrandType:ss}|RNA2{StrandType:as}$,79%
15,RNA1{r(A)p.r(A)p.r(G)p.r(G)p.r(C)p.r(C)p.r(A)p.r(A)p.r(C)p.r(C)p.r(G)p.r(A)p.[fl2r](U)p.r(A)p.r(C)p.r(U)p.r(U)p.r(C)p.r(U)p.r(T)p.r(T)}|RNA2{r(A)p.r(G)p.r(A)p.r(A)p.r(G)p.[fl2r](U)p.r(A)p.r(U)p.r(C)p.r(G)p.r(G)p.r(U)p.r(U)p.r(G)p.r(G)p.r(C)p.r(C)p.r(U)p.r(U)p.r(T)p.r(T)}$$$RNA1{StrandType:ss}|RNA2{StrandType:as}$,69%
16,RNA1{r(U)p.[fl2r](U)p.r(A)p.r(C)p.r(C)p.r(C)p.r(C)p.r(G)p.r(A)p.r(U)p.r(U)p.r(C)p.r(A)p.r(G)p.r(C)p.r(C)p.r(U)p.r(C)p.r(U)p.r(T)p.r(T)}|RNA2{r(A)p.r(G)p.r(A)p.r(G)p.r(G)p.r(C)p.r(U)p.r(G)p.r(A)p.r(A)p.r(U)p.r(C)p.r(G)p.r(G)p.r(G)p.r(G)p.r(U)p.[fl2r](A)p.r(A)p.r(T)p.r(T)}$$$RNA1{StrandType:ss}|RNA2{StrandType:as}$,69%
17,RNA1{[fl2r](C)p.r(U)p.[fl2r](A)p.r(G)p.[fl2r](A)p.r(G)p.[fl2r](G)p.r(A)p.[fl2r](U)p.r(C)p.[fl2r](U)p.r(U)p.[fl2r](G)p.r(A)p.[fl2r](A)p.r(G)p.[fl2r](A)p.r(C)p.r(C)p.r(T)p.r(T)}|RNA2{r(G)p.r(G)p.r(U)p.r(C)p.r(U)p.r(U)p.r(C)p.r(A)p.r(A)p.r(G)p.r(A)p.r(U)p.r(C)p.r(C)p.r(U)p.r(C)p.r(U)p.r(A)p.r(G)p.r(T)p.r(T)}$$$RNA1{StrandType:ss}|RNA2{StrandType:as}$,61%
18,RNA1{r(C)p.r(U)p.r(A)p.r(G)p.r(A)p.r(G)p.r(G)p.r(A)p.r(U)p.r(C)p.r(U)p.r(U)p.r(G)p.r(A)p.r(A)p.r(G)p.r(A)p.r(C)p.r(C)p.r(T)p.r(T)}|RNA2{r(G)p.r(G)p.r(U)p.r(C)p.r(U)p.r(U)p.[fl2r](C)p.r(A)p.r(A)p.r(G)p.r(A)p.r(U)p.r(C)p.r(C)p.r(U)p.r(C)p.[fl2r](U)p.r(A)p.r(G)p.r(T)p.r(T)}$$$RNA1{StrandType:ss}|RNA2{StrandType:as}$,95%
19,RNA1{r(A)p.r(A)p.r(C)p.r(U)p.r(C)p.r(U)p.r(A)p.r(C)p.[fl2r](U)p.r(G)p.r(U)p.r(G)p.r(G)p.r(A)p.r(G)p.r(U)p.r(C)p.r(G)p.r(G)p.r(T)p.r(T)}|RNA2{r(C)p.r(C)p.r(G)p.r(A)p.r(C)p.r(U)p.r(C)p.[fl2r](C)p.r(A)p.r(C)p.r(A)p.r(G)p.[fl2r](U)p.r(A)p.r(G)p.r(A)p.r(G)p.r(U)p.r(U)p.r(T)p.r(T)}$$$RNA1{StrandType:ss}|RNA2{StrandType:as}$,72%
